# Literature values in patent US11052092B2, “N-{[2-(piperidin-1-yl)phenyl](phenyl)methyl}-2-(3-oxo-3,4-dihydro-2H-1,4-benzoxazin-7-yl)acetamide derivatives and related compounds as ROR-gamma modulators for treating autoimmune diseases” (Genfit, priority 2017, dated 2021).
# Columns and labels:
# multiple sclerosis model = settings: administered by injection; cited from earlier work
# psoriasis model = settings: administered by injection; cited from earlier work
# [1] = system: patients with moderate to severe psoriasis; settings: cited from earlier work
smiles,measurement,setting,value
CC(=O)Nc1nc(C)c(S(=O)(=O)Nc2ccc(C(O)(C(F)(F)F)C(F)(F)F)cc2)s1 [SR1001],efficacy in multiple sclerosis model,multiple sclerosis model,efficacious
Cc1ccc([C@@H](NC(=O)Cc2ccc3oc([C@@H](O)c4c(C)noc4C)cc3c2)c2ccccc2)c(C)c1 [TMP778],efficacy in psoriasis model,psoriasis model,efficacious
CCS(=O)(=O)c1ccc(CNC(=O)c2cnc3c(c2)CN(C[C@H]2CC[C@H](C(F)(F)F)CC2)[C@H]3C(C)C)nc1 [VTP-43742],reduction in the Psoriasis Area Severity Index (PASI) score relative to placebo,[1]; 350 mg dose group,24%
same,placebo-adjusted PASI score reduction,[1]; 700 mg dose group,30%
same,plasma IL-17 levels,[1]; relative to placebo,reduced
